The text below walks through data of paper PMC9941834, “Histidine supplementation can escalate or rescue HARS deficiency in a Charcot–Marie–Tooth disease model” (Human Molecular Genetics, 2022).

Holding throughout (assay): differential scanning fluorimetry (thermal shift)
Holding throughout (type): binding

The target of experiment [1] is T1, hsHARS (human histidyl-tRNA synthetase, HARS) (Homo sapiens, UniProt P12081, V155G).
T1 construct: gene HARS1; hsHARS gene in pDest527, 6x-His tag, E. coli BL21 Codon Plus, Ni-NTA purified; dimeric protein
T1 sequence (P12081 1-509 V155G): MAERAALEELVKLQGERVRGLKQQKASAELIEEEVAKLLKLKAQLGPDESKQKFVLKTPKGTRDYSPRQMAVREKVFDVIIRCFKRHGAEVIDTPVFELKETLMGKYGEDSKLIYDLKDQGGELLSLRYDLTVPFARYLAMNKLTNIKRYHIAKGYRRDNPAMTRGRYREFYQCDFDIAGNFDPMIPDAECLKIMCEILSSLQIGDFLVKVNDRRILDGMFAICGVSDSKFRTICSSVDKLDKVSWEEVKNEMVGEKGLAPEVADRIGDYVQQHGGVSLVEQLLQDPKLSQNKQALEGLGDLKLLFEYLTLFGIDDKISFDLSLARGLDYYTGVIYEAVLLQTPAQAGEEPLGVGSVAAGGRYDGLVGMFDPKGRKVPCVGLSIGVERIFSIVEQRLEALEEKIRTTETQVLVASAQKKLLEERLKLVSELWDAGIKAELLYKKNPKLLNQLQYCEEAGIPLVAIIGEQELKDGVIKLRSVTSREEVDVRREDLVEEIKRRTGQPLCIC
The settings on record: 1 μM protein, apo mutant TM 59.8 ± 0.7 °C. The text has this:
(§1) differential scanning fluorimetry (thermal shift) on […]

For experiment [2], the target named is T2, hsHARS (human histidyl-tRNA synthetase, HARS) (Homo sapiens, UniProt P12081, Y454S).
T2 construct: gene HARS1; hsHARS gene in pDest527, 6x-His tag, E. coli BL21 Codon Plus, Ni-NTA purified; dimeric protein
T2 sequence (P12081 1-509 Y454S): T1 sequence (P12081 1-509 V155G) with G155V, Y454S
The settings on record: 1 μM protein, apo mutant TM 50 ± 1.8 °C.
From the text: as §1

Experiment [3] concerns the target T3, hsHARS (human histidyl-tRNA synthetase, HARS) (Homo sapiens, UniProt P12081, V133F).
T3 construct: gene HARS1; hsHARS gene in pDest527, 6x-His tag, E. coli BL21 Codon Plus, Ni-NTA purified; dimeric protein
T3 sequence (P12081 1-509 V133F): T1 sequence (P12081 1-509 V155G) with V133F, G155V
The settings on record: 500 μM ATP, 1 μM protein; apo mutant TM 52 ± 1.2 °C. An excerpt: differential scanning fluorimetry (thermal shift) on hsHARS (human histidyl-tRNA synthetase, HARS) | high ATP concentrations increase the thermal stability of HARS V133F to wild-type levels

The structures appear in SMILES notation. Residue numbers refer to the chain shown, from its start.

As to `Nc1ncnc2c1ncn2[C@@H]1O[C@H](COP(=O)(O)OP(=O)(O)OP(=O)(O)O)[C@@H](O)[C@H]1O` [ATP], the TM entry in experiment [1] (500 μM ATP) is “all substrate supplementations restored wild-type like levels of protein stability”; in experiment [2] (500 μM ATP), “The addition of tRNA or ATP alone or in combination slightly increased stability”; in experiment [3] it was 63 ± 1.9 °C.

Consider `N[C@@H](Cc1cnc[nH]1)C(=O)O` [histidine], for which the TM result in experiment [1] (1 mM histidine) is “all substrate supplementations restored wild-type like levels of protein stability”; in experiment [2] (1 mM histidine), 57.8 ± 0.8 °C.
